In US9388216B2, “Methods of treating reproductive cancer” (Medical Research Council, priority 2006, dated 2016):

Legend:
[1] = tested on: HEK293/hGnRHR cells; assay: Cell growth inhibition (viable cell number after 5 days of continuous treatment) in HEK293/hGnRHR cells; assay type: cell-based, human; details: human receptor
Description: (§1) For the first method, HEK293 cells expressing various GnRH receptor constructs were seeded into 12-well PLL-coated plates at 50,000 cells (in 1 ml)/well and cultured with continuous GnRH exposure for five days, adding fresh peptide every day. Trypan Blue-excluding cells were then counted with a haemocytometer. For the second method, cells were seeded into 96-well plates at 5,000 cells (in 100 μl)/well and treated exactly as described before. 10 μl WST-1 reagent (Roche Diagnostics Ltd.; Lewes, East Sussex, UK) was added directly to each well and, after 3 h at 37° C., absorbance was read at 450 nm (with a reference at 690 nm) against a background control as blank using a microplate ELISA reader.
(§2) Bar graphs and curves were obtained using Prism 3.0 (GraphPad Software, Inc.: San Diego, Calif., USA). IC50 and EC50 values were determined by non-linear regression analysis. Curves were best-fitted to a one-site model. […] Values were normalised as specified in the figure legends.
(§3) Antiproliferation/apoptosis was estimated by determining cell number after five days of continuous exposure to the peptides. In parallel, this response was compared to the classical Gq coupled-PLCβ activation induced by GnRH peptides, as measured by the very well characterized inositol phosphates accumulation protocol. Both outputs were determined in two HEK293 cell lines; one expressing the rat receptor and the other expressing the human receptor. The human cell line was included in the study because this species may be clinically more relevant and the very low receptor expression may better reflect the in vivo tumoural state. In fact, due to poor binding, the precise affinity of the analogues on this cell line could not be determined.

[2] = tested on: HEK293/rGnRHR cells; assay: Thymidine incorporation assay; assay type: cell-based, rat; details: 100 nM, continuous treatment, over 96 h
Description: Medium of cells growing on 24-well PLL-coated plates was removed and 0.5 μCi [3H]thymidine (Amersham) in complete fresh medium was added to each well. After an overnight incubation, the medium was removed, the cells washed three times with 1 ml PBS and left for […] at room temperature in 0.5 ml 0.1 N NaOH. The extract was then transferred to a scintillation vial, 2 ml of Optiphase “HiSafe 3” cocktail (PerkinElmer) added and 3H counts measured in a liquid scintillation 1450 Wallac MicroBeta® TriLux counter.
(§4) We investigated whether the growth suppression caused by GnRH on HEK293 cells expressing the rat receptor was due to an inhibition of cell proliferation or an induction of apoptosis. On the one hand, we used radioactive thymidine incorporation into the genome to track cell proliferation over a period of 96 h. […] On the other hand, we measured apoptosis by monitoring cleavage of poly[ADP-ribose]polymerase (PARP), a substrate of caspase 3. […] The increase of cleaved PARP in the cytoplasm was proportional to the increase of cleaved PARP in the nucleus (data not shown), so we routinely only examined clarified whole-cell lysates for technical ease.

[3] = tested on: PARP cleavage in HEK293/rGnRHR cells; assay: Time-course of PARP cleavage (apoptosis), western blot; assay type: cell-based, rat; details: 100 nM
Description: as §4

[4] = tested on: HEK293/rGnRHR cells; assay: Cell growth inhibition (viable cell number after 5 days of continuous treatment) in HEK293/rGnRHR cells; assay type: cell-based, rat; details: rat receptor
Description: as §1, §2, §3

[5] = tested on: Gi coupling of GnRHR (FSK-stimulated cAMP); assay: Inhibition of FSK-stimulated cAMP in HEK293/rGnRHR cells; assay type: cell-based, rat; details: unpublished results
Source text: However, we agree with the general view that PLC, representing the classical Gq-initiated pituitary signalling pathway, is not a relevant component of the apoptotic cascade.

[6] = target: T1, rat GnRH receptor (Rattus norvegicus, UniProt P30969); assay: Accumulation of total inositol phosphates (PLCβ activation) in HEK293/rGnRHR cells; assay type: cell-based
T1 construct: expressed in transfected cells
T1 sequence (P30969 1-327): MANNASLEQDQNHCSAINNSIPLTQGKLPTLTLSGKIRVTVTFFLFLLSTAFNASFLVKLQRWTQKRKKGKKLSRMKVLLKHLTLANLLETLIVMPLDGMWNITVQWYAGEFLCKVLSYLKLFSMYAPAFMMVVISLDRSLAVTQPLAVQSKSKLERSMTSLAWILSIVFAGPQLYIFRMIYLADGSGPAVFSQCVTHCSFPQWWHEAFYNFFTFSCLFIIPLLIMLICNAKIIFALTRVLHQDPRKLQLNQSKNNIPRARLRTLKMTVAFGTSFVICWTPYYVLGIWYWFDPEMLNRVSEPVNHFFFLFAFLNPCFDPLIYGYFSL
Description: HEK293 cells stably expressing the GnRH receptor growing on 12-well PLL-coated plates were pre-labelled with 1 μCi/ml myo-[H3]inositol (Amersham) in inositol-free DMEM (Sigma) for 48 h. On the day of the experiment, cells were washed with assay buffer (140 mM NaCl, 20 mM HEPES, 8 mM glucose, 4 mM KCl, 1 mM MgCl2, 1 mM CaCl2, 1 mg/ml BSA), pre-incubated with 10 mM LiCl (in assay buffer) for 30 min, and stimulated with different concentrations of the peptides (in the same buffer) for 1 h at 37° C. Incubations were terminated by removing the culture medium and lysing the cells in ice cold 10 mM formic acid for 30 min. Inositol phosphates were extracted by chromatography with an anion exchange resin (AG® 1-X8, Bio-Rad) using 1 M ammonium formate and 0.1 M formic acid. Liquid scintillant was added to the final eluate and [3H]inositol phosphates were measured in the β-counter.
as §2

[7] = tested on: ERK1/2 phosphorylation in HEK293 cells expressing rat GnRHR or rat GnRHR/TRHR chimera; assay: ERK activation profile, western blot with anti-phosphorylated ERK1/2; assay type: cell-based; details: 100 nM, rat GnRHR versus rat GnRHR/TRHR chimera
Source text: We decided to investigate if this lack of rapid desensitisation holds true for other responses that may be more pertinent for the antiproliferative/apoptotic properties of GnRH.

[8] = tested on: HEK293 cells over-expressing the catfish GnRHR or the TRHR; assay: Cell growth in HEK293 cells over-expressing the catfish GnRHR or the TRHR; assay type: cell-based; details: data not shown
Description: as §1
To the best of our knowledge, the ability to inhibit the growth of cells expressing its cognate receptor is a property only clearly described for GnRH, Since the type I GnRH receptor (GnRHR) is the only G protein-coupled receptor lacking an intracellular C-terminal tail, we hypothesized that the cell growth suppression ability of GnRH was conferred by this unique feature of the GnRHR. […] We were unable to detect growth suppression of wild-type HEK293 cells, which endogenously express adrenergic, LPA and endothelin receptors, treated with their corresponding agonists (data not shown). The expression of all receptors mentioned was confirmed by binding assays or western blotting (data not shown).

[9] = tested on: HEK293 cells expressing human GnRHR with catfish GnRHR tail or rat GnRHR with TRHR tail; assay: Cell growth after five days of GnRH I in HEK293 cells expressing tailed chimeric receptors; assay type: cell-based; details: five days of continuous treatment
Description: Trypan Blue-excluding cells were then counted with a haemocytometer. For the second method, cells were seeded into 96-well plates at 5,000 cells (in 100 μl)/well and treated exactly as described before. 10 μl WST-1 reagent (Roche Diagnostics Ltd.; Lewes, East Sussex, UK) was added directly to each well and, after 3 h at 37° C., absorbance was read at 450 nm (with a reference at 690 nm) against a background control as blank using a microplate ELISA reader. To the best of our knowledge, the ability to inhibit the growth of cells expressing its cognate receptor is a property only clearly described for GnRH, Since the type I GnRH receptor (GnRHR) is the only G protein-coupled receptor lacking an intracellular C-terminal tail, we hypothesized that the cell growth suppression ability of GnRH was conferred by this unique feature of the GnRHR. […] We were unable to detect growth suppression of wild-type HEK293 cells, which endogenously express adrenergic, LPA and endothelin receptors, treated with their corresponding agonists (data not shown). The expression of all receptors mentioned was confirmed by binding assays or western blotting (data not shown).

Substance | fold more potent than GnRH I to induce cell death / inhibit cell growth [1] [fold] | DNA replication (thymidine incorporation) compared to untreated cells [2] | time after first treatment at which PARP cleavage (apoptosis) is manifest [3] | fold more potent than GnRH I to induce cell death / inhibit cell growth [4] [fold] | inhibition of FSK-stimulated cAMP [5] | fold more potent to activate PLCβ than GnRH II [6] [fold] | duration of ERK activation [7] | inhibition of cell growth [8] | effect of GnRH I on cell growth of cell lines expressing the chimeras [9]
pGlu-His-Trp-Ser-His-Gly-Trp-Tyr-Pro-Gly.NH2 (EHWSHGWYPG; HELM PEPTIDE1{[Glp].H.W.S.H.G.W.Y.P.G.[am]}$$$$V2.0; SMILES NC(=O)CNC(=O)[C@@H]1CCCN1C(=O)[C@H](Cc1ccc(O)cc1)NC(=O)[C@H](Cc1c[nH]c2ccccc12)NC(=O)CNC(=O)[C@H](Cc1c[nH]cn1)NC(=O)[C@H](CO)NC(=O)[C@H](Cc1c[nH]c2ccccc12)NC(=O)[C@H](Cc1c[nH]cn1)NC(=O)[C@@H]1CCC(=O)N1) [GnRH II, human gonadotropin-releasing hormone II, purchased from Sigma-Aldrich] | 6.7 | reduced DNA replication | 24 h | 13.0 | did not detect | – | – | – | –
pGlu-His-Trp-Ser-Tyr-Gly-Leu-Arg-Pro-Gly.NH2 [GnRH I] | – | reduced DNA replication | at least 48 h | – | did not detect | 4.7 | more sustained in the cells expressing the receptors lacking the C-terminal tail | did not inhibit the growth | Addition of the C-terminal tails inhibited the effect
